Consider three molecules from PubChem BioAssay AID1259407 (Chemical Carcinogenesis Research Information System (CCRIS), 2018).

The subject of this data set is CCRIS mutagenicity, Ames/micronucleus/aberration tests. Briefly: CCRIS mutagenicity studies.

Activity calls are given as the source filed them. No rule for the calls is given here.

As for `C=C(C)CCl`, the mutagenic call is “active; positive (structural changes)” (End Point: IN VITRO CHROMOSOMAL ABERRATIONS, Test System: CHL CELLS, Metabolic Activation: RAT, LIVER, S-9, SODIUM PHENOBARBITAL AND 5,6-BENZOFLAVONE); “inactive; negative” (Test System: AMES SALMONELLA TYPHIMURIUM, Strain/Indicator: TA97, Metabolic Activation: HAMSTER, LIVER, S-9, AROCLOR 1254 (10 OR 30%), Method: PREINCUBATION); “inactive; negative” (Test System: AMES SALMONELLA TYPHIMURIUM, Strain/Indicator: TA97, Metabolic Activation: NONE, Method: PREINCUBATION); “inactive; negative” (Test System: AMES SALMONELLA TYPHIMURIUM, Strain/Indicator: TA97, Metabolic Activation: RAT, LIVER, S-9, AROCLOR 1254 (10 OR 30%), Method: PREINCUBATION); “inactive; negative” (Test System: AMES SALMONELLA TYPHIMURIUM, Strain/Indicator: TA98, Metabolic Activation: HAMSTER, LIVER, S-9, AROCLOR 1254 (10 OR 30%), Method: PREINCUBATION); “inactive; negative” (Test System: AMES SALMONELLA TYPHIMURIUM, Strain/Indicator: TA98, Metabolic Activation: NONE, Method: PREINCUBATION). The mutagenic call is, setting by setting: (Test System: AMES SALMONELLA TYPHIMURIUM, Strain/Indicator: TA98, Metabolic Activation: RAT LIVER S-9, PHENOBARBITAL AND BETA-NAPHTHOFLAVONE, Method: PREINCUBATION) “inactive; negative”; (Test System: AMES SALMONELLA TYPHIMURIUM, Strain/Indicator: TA98, Metabolic Activation: RAT, LIVER, S-9, AROCLOR 1254 (10 OR 30%), Method: PREINCUBATION) “inactive; negative”; (Test System: AMES SALMONELLA TYPHIMURIUM, Strain/Indicator: TA100, Metabolic Activation: HAMSTER, LIVER, S-9, AROCLOR 1254 (10 OR 30%), Method: PREINCUBATION) “inactive; negative”; (Test System: AMES SALMONELLA TYPHIMURIUM, Strain/Indicator: TA100, Metabolic Activation: NONE, Method: LIQUID SUSPENSION) “active; positive”; (Test System: AMES SALMONELLA TYPHIMURIUM, Strain/Indicator: TA100, Metabolic Activation: NONE, Method: PREINCUBATION) “inactive; negative”; (Test System: AMES SALMONELLA TYPHIMURIUM, Strain/Indicator: TA100, Metabolic Activation: RAT LIVER S-9, PHENOBARBITAL AND BETA-NAPHTHOFLAVONE, Method: PREINCUBATION) “inactive; negative”. For the same molecule, the mutagenic call runs as follows: (Test System: AMES SALMONELLA TYPHIMURIUM, Strain/Indicator: TA100, Metabolic Activation: RAT, LIVER, S-9, AROCLOR 1254 (10 OR 30%), Method: PREINCUBATION) “inactive; negative”; (Test System: AMES SALMONELLA TYPHIMURIUM, Strain/Indicator: TA100, Metabolic Activation: RAT, LIVER, S-9, Method: LIQUID SUSPENSION) “active; positive”; (Test System: AMES SALMONELLA TYPHIMURIUM, Strain/Indicator: TA102, Metabolic Activation: NONE, Method: PREINCUBATION) “inactive; negative”; (Test System: AMES SALMONELLA TYPHIMURIUM, Strain/Indicator: TA102, Metabolic Activation: RAT LIVER S-9, PHENOBARBITAL AND BETA-NAPHTHOFLAVONE, Method: PREINCUBATION) “inactive; negative”; (Test System: AMES SALMONELLA TYPHIMURIUM, Strain/Indicator: TA102, Metabolic Activation: RAT, LIVER, S-9, PHENOBARBITAL AND 5,6-BENZOFLAVONE, Method: STANDARD PLATE) “inactive; negative”; (Test System: AMES SALMONELLA TYPHIMURIUM, Strain/Indicator: TA104, Metabolic Activation: NONE, Method: PREINCUBATION) “inactive; negative”. Also, the mutagenic call runs as follows: (Test System: AMES SALMONELLA TYPHIMURIUM, Strain/Indicator: TA104, Metabolic Activation: RAT LIVER S-9, PHENOBARBITAL AND BETA-NAPHTHOFLAVONE, Method: PREINCUBATION) “inactive; negative”; (Test System: AMES SALMONELLA TYPHIMURIUM, Strain/Indicator: TA1535, Metabolic Activation: HAMSTER, LIVER, S-9, AROCLOR 1254 (10 OR 30%), Method: PREINCUBATION) “inactive; negative”; (Test System: AMES SALMONELLA TYPHIMURIUM, Strain/Indicator: TA1535, Metabolic Activation: NONE, Method: PREINCUBATION) “inactive; negative”; (Test System: AMES SALMONELLA TYPHIMURIUM, Strain/Indicator: TA1535, Metabolic Activation: RAT LIVER S-9, PHENOBARBITAL AND BETA-NAPHTHOFLAVONE, Method: PREINCUBATION) “inactive; negative”; (Test System: AMES SALMONELLA TYPHIMURIUM, Strain/Indicator: TA1535, Metabolic Activation: RAT, LIVER, S-9, AROCLOR 1254 (10 OR 30%), Method: PREINCUBATION) “inactive; negative”; (Test System: AMES SALMONELLA TYPHIMURIUM, Strain/Indicator: TA1537, Metabolic Activation: HAMSTER, LIVER, S-9, AROCLOR 1254 (10 OR 30%), Method: PREINCUBATION) “inactive; negative”. Also, the mutagenic call (Test System: AMES SALMONELLA TYPHIMURIUM, Strain/Indicator: TA1537, Metabolic Activation: NONE, Method: PREINCUBATION) was “inactive; negative”; the mutagenic call (Test System: AMES SALMONELLA TYPHIMURIUM, Strain/Indicator: TA1537, Metabolic Activation: RAT LIVER S-9, PHENOBARBITAL AND BETA-NAPHTHOFLAVONE, Method: PREINCUBATION) was “inactive; negative”; the mutagenic call (Test System: AMES SALMONELLA TYPHIMURIUM, Strain/Indicator: TA1537, Metabolic Activation: RAT, LIVER, S-9, AROCLOR 1254 (10 OR 30%), Method: PREINCUBATION) is “inactive; negative”; the mutagenic call (Test System: AMES SALMONELLA TYPHIMURIUM, Strain/Indicator: TA2638, Metabolic Activation: RAT, LIVER, S-9, PHENOBARBITAL AND 5,6-BENZOFLAVONE, Method: STANDARD PLATE) is “inactive; negative”; the mutagenic call (Test System: E. COLI, Strain/Indicator: WP2 (PKM101), Metabolic Activation: RAT, LIVER, S-9, PHENOBARBITAL AND 5,6-BENZOFLAVONE, Method: STANDARD PLATE) was “inactive; negative”; the mutagenic call (Test System: E. COLI, Strain/Indicator: WP2 UVRA (PKM101), Metabolic Activation: RAT, LIVER, S-9, PHENOBARBITAL AND 5,6-BENZOFLAVONE, Method: STANDARD PLATE) was “inactive; negative”. For the same molecule, the mutagenic call (Test System: E.COLI, Strain/Indicator: WP2UVRA/PKM101, Metabolic Activation: NONE, Method: PREINCUBATION) was “inactive; negative”; the mutagenic call (Test System: E.COLI, Strain/Indicator: WP2UVRA/PKM101, Metabolic Activation: RAT LIVER S-9, PHENOBARBITAL AND BETA-NAPHTHOFLAVONE, Method: PREINCUBATION) is “active; positive”; the mutagenic call (Test System: E.COLI, Strain/Indicator: WP2UVRA, Metabolic Activation: NONE, Method: PREINCUBATION) is “inactive; negative”; the mutagenic call (Test System: E.COLI, Strain/Indicator: WP2UVRA, Metabolic Activation: RAT LIVER S-9, PHENOBARBITAL AND BETA-NAPHTHOFLAVONE, Method: PREINCUBATION) is “inactive; negative”.

For the molecule `COc1cc([N+](=O)[O-])ccc1NC(C)=O`, the mutagenic call reads like this: (Test System: AMES SALMONELLA TYPHIMURIUM, Strain/Indicator: TA98, Metabolic Activation: NONE, Method: STANDARD PLATE) “active; positive”; (Test System: AMES SALMONELLA TYPHIMURIUM, Strain/Indicator: TA98, Metabolic Activation: RAT, LIVER, S-9, AROCLOR 1254, Method: STANDARD PLATE) “inactive; negative”.

Turning to `O=NN1CCCCCC1`, the mutagenic call was “active; positive” (Test System: AMES SALMONELLA TYPHIMURIUM, Strain/Indicator: TA100, Metabolic Activation: RABBIT, LIVER, S-9, Method: PREINCUBATION); “inactive; negative” (Test System: AMES SALMONELLA TYPHIMURIUM, Strain/Indicator: TA100, Metabolic Activation: RABBIT, LUNG MACROPHAGES, Method: PREINCUBATION); “inactive; negative” (Test System: AMES SALMONELLA TYPHIMURIUM, Strain/Indicator: TA100, Metabolic Activation: RABBIT, LUNG, CLARA CELLS, Method: PREINCUBATION); “inactive; negative” (Test System: AMES SALMONELLA TYPHIMURIUM, Strain/Indicator: TA100, Metabolic Activation: RABBIT, LUNG, TYPE II CELLS, Method: PREINCUBATION); “active; positive” (Test System: AMES SALMONELLA TYPHIMURIUM, Strain/Indicator: TA1530, Metabolic Activation: RABBIT, LIVER, S-9, Method: PREINCUBATION); “inactive; negative” (Test System: AMES SALMONELLA TYPHIMURIUM, Strain/Indicator: TA1530, Metabolic Activation: RABBIT, LUNG MACROPHAGES, Method: PREINCUBATION). The mutagenic call by setting is: (Test System: AMES SALMONELLA TYPHIMURIUM, Strain/Indicator: TA1530, Metabolic Activation: RABBIT, LUNG, CLARA CELLS, Method: PREINCUBATION) “inactive; negative”; (Test System: AMES SALMONELLA TYPHIMURIUM, Strain/Indicator: TA1530, Metabolic Activation: RABBIT, LUNG, TYPE II CELLS, Method: PREINCUBATION) “inactive; negative”; (Test System: UDS RABBIT LUNG CLARA CELLS, Strain/Indicator: THY INCORP, Metabolic Activation: NONE, Method: LIQUID SCINTILLATION COUNTING) “active; positive”; (Test System: UDS RABBIT LUNG MACROPHAGES, Strain/Indicator: THY INCORP, Metabolic Activation: NONE, Method: LIQUID SCINTILLATION COUNTING) “inactive; negative”; (Test System: UDS RABBIT LUNG TYPE II CELLS, Strain/Indicator: THY INCORP, Metabolic Activation: NONE, Method: LIQUID SCINTILLATION COUNTING) “inactive; negative”.
